Source: PubChem BioAssay AID2060341 (Molecular Pharmacology Branch, DTP, NCI, 2025)

Test system: 327498-153-R-J2-PDC multicell spheroid viability
Assay: Anticancer human tumor 327498-153-R-J2-PDC patient-derived uterine carcinosarcoma cell line growth inhibition [IpAb]
Settings: for IC50: curve of first compound; for viability, T/C: stronger effect = lower value
Summary of the method: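 Multi-cell spheroids of 60% tumour cells, 25% HUVEC and 15% MSC in ultra-low-attachment U-bottom wells, treated with agents combined with ipatasertib or abemaciclib. Half-log ranges top out near clinical Cmax, or 10 microM when Cmax is unknown.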

[1] = second compound 0.01 µM, first compound 0.00949 µM
[2] = second compound 0.01 µM, first compound 0.03 µM
[3] = second compound 0.01 µM, first compound 0.0949 µM
[4] = second compound 0.01 µM, first compound 0.3 µM
[5] = second compound 0.0316 µM, first compound 0.00949 µM
[6] = second compound 0.0316 µM, first compound 0.03 µM
[7] = second compound 0.0316 µM, first compound 0.0949 µM
[8] = second compound 0.0316 µM, first compound 0.3 µM
[9] = second compound 0.1 µM, first compound 0.00949 µM
[10] = second compound 0.1 µM, first compound 0.03 µM
[11] = second compound 0.1 µM, first compound 0.0949 µM
[12] = second compound 0.1 µM, first compound 0.3 µM
[13] = second compound 0.316 µM, first compound 0.00949 µM
[14] = second compound 0.316 µM, first compound 0.03 µM
[15] = second compound 0.316 µM, first compound 0.0949 µM
[16] = second compound 0.316 µM, first compound 0.3 µM
[17] = second compound 1 µM, first compound 0.00949 µM
[18] = second compound 1 µM, first compound 0.03 µM
[19] = second compound 1 µM, first compound 0.0949 µM
[20] = second compound 1 µM, first compound 0.3 µM
[21] = second compound 0.01 µM, first compound 0.0316 µM
[22] = second compound 0.01 µM, first compound 0.1 µM
[23] = second compound 0.01 µM, first compound 0.316 µM
[24] = second compound 0.01 µM, first compound 1 µM
[25] = second compound 0.0316 µM, first compound 0.0316 µM
[26] = second compound 0.0316 µM, first compound 0.1 µM
[27] = second compound 0.0316 µM, first compound 0.316 µM
[28] = second compound 0.0316 µM, first compound 1 µM
[29] = second compound 0.1 µM, first compound 0.0316 µM
[30] = second compound 0.1 µM, first compound 0.1 µM
[31] = second compound 0.1 µM, first compound 0.316 µM
[32] = second compound 0.1 µM, first compound 1 µM
[33] = second compound 0.316 µM, first compound 0.0316 µM
[34] = second compound 0.316 µM, first compound 0.1 µM
[35] = second compound 0.316 µM, first compound 0.316 µM
[36] = second compound 0.316 µM, first compound 1 µM
[37] = second compound 1 µM, first compound 0.0316 µM
[38] = second compound 1 µM, first compound 0.1 µM
[39] = second compound 1 µM, first compound 0.316 µM
[40] = second compound 1 µM, first compound 1 µM
[41] = second compound 0.01 µM, first compound 3.16 µM
[42] = second compound 0.01 µM, first compound 10 µM
[43] = second compound 0.0316 µM, first compound 3.16 µM
[44] = second compound 0.0316 µM, first compound 10 µM
[45] = second compound 0.1 µM, first compound 3.16 µM
[46] = second compound 0.1 µM, first compound 10 µM
[47] = second compound 0.316 µM, first compound 3.16 µM
[48] = second compound 0.316 µM, first compound 10 µM
[49] = second compound 1 µM, first compound 3.16 µM
[50] = second compound 1 µM, first compound 10 µM
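Further: spheroids exposed to agents for 7 days.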
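Wherever viability, T/C is given: 100% = DMSO vehicle control viability.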

CC(=O)c1c(C)c2cnc(Nc3ccc(N4CCNCC4)cn3)nc2n(C2CCCC2)c1=O + CCN1CCN(Cc2ccc(Nc3ncc(F)c(-c4cc(F)c5nc(C)n(C(C)C)c5c4)n3)nc2)CC1
IC50 (second compound 0.01 µM): > 300 nM | IC50 (second compound 0.0316 µM): > 300 nM | IC50 (second compound 0.1 µM): > 300 nM | IC50 (second compound 0.316 µM): > 300 nM | IC50 (second compound 1 µM): > 300 nM | viability, T/C (second compound 0.01 µM, first compound 0.000949 µM): 91.3% | viability, T/C (second compound 0.01 µM, first compound 0.003 µM): 88.8% | viability, T/C [1]: 91% | viability, T/C [2]: 82.3% | viability, T/C [3]: 70.7% | viability, T/C [4]: 59.1% | viability, T/C (second compound 0.0316 µM, first compound 0.000949 µM): 77.1% | viability, T/C (second compound 0.0316 µM, first compound 0.003 µM): 74.8% | viability, T/C [5]: 72.8% | viability, T/C [6]: 65% | viability, T/C [7]: 59.9% | viability, T/C [8]: 54.8% | viability, T/C (second compound 0.1 µM, first compound 0.000949 µM): 66.2% | viability, T/C (second compound 0.1 µM, first compound 0.003 µM): 61% | viability, T/C [9]: 67.3% | viability, T/C [10]: 56.9% | viability, T/C [11]: 59.9% | viability, T/C [12]: 57.1% | viability, T/C (second compound 0.316 µM, first compound 0.000949 µM): 58.3% | viability, T/C (second compound 0.316 µM, first compound 0.003 µM): 58.2% | viability, T/C [13]: 62% | viability, T/C [14]: 54.6% | viability, T/C [15]: 56.4% | viability, T/C [16]: 60.6% | viability, T/C (second compound 1 µM, first compound 0.000949 µM): 55.5% | viability, T/C (second compound 1 µM, first compound 0.003 µM): 57.9% | viability, T/C [17]: 62% | viability, T/C [18]: 54.1% | viability, T/C [19]: 57.6% | viability, T/C [20]: 56.2%

CC(C)(C)c1cnc(CSc2cnc(NC(=O)C3CCNCC3)s2)o1 + CCN1CCN(Cc2ccc(Nc3ncc(F)c(-c4cc(F)c5nc(C)n(C(C)C)c5c4)n3)nc2)CC1
IC50 (second compound 0.01 µM): 142 nM | IC50 (second compound 0.0316 µM): 105 nM | IC50 (second compound 0.1 µM): 83.4 nM | IC50 (second compound 0.316 µM): 37.5 nM | IC50 (second compound 1 µM): 34.4 nM | viability, T/C [1]: 90% | viability, T/C [2]: 80.7% | viability, T/C [3]: 75.5% | viability, T/C [4]: 2.61% | viability, T/C (second compound 0.01 µM, first compound 0.949 µM): 0.63% | viability, T/C (second compound 0.01 µM, first compound 3 µM): 0.6% | viability, T/C [5]: 76.8% | viability, T/C [6]: 68.4% | viability, T/C [7]: 54.6% | viability, T/C [8]: 1.44% | viability, T/C (second compound 0.0316 µM, first compound 0.949 µM): 0.56% | viability, T/C (second compound 0.0316 µM, first compound 3 µM): 0.66% | viability, T/C [9]: 57.6% | viability, T/C [10]: 67.6% | viability, T/C [11]: 48.4% | viability, T/C [12]: 0.6% | viability, T/C (second compound 0.1 µM, first compound 0.949 µM): 0.61% | viability, T/C (second compound 0.1 µM, first compound 3 µM): 0.61% | viability, T/C [13]: 51.6% | viability, T/C [14]: 54.3% | viability, T/C [15]: 37.6% | viability, T/C [16]: 0.81% | viability, T/C (second compound 0.316 µM, first compound 0.949 µM): 0.6% | viability, T/C (second compound 0.316 µM, first compound 3 µM): 0.72% | viability, T/C [17]: 55.4% | viability, T/C [18]: 50.8% | viability, T/C [19]: 29.8% | viability, T/C [20]: 0.56% | viability, T/C (second compound 1 µM, first compound 0.949 µM): 1.62% | viability, T/C (second compound 1 µM, first compound 3 µM): 0.76%

COc1c(OCCCN2CCOCC2)ccc2c3n(c(=NC(=O)c4cnc(N)nc4)nc12)CCN3 + CCN1CCN(Cc2ccc(Nc3ncc(F)c(-c4cc(F)c5nc(C)n(C(C)C)c5c4)n3)nc2)CC1
IC50 (second compound 0.01 µM): 63.7 nM | IC50 (second compound 0.0316 µM): 32.1 nM | IC50 (second compound 0.1 µM): 13.9 nM | IC50 (second compound 0.316 µM): 5.63 nM | IC50 (second compound 1 µM): 6.38 nM | viability, T/C (second compound 0.01 µM, first compound 0.00316 µM): 81.9% | viability, T/C (second compound 0.01 µM, first compound 0.01 µM): 78.5% | viability, T/C [21]: 70.9% | viability, T/C [22]: 36.3% | viability, T/C [23]: 16.8% | viability, T/C [24]: 9.29% | viability, T/C (second compound 0.0316 µM, first compound 0.00316 µM): 70.9% | viability, T/C (second compound 0.0316 µM, first compound 0.01 µM): 60.8% | viability, T/C [25]: 52.5% | viability, T/C [26]: 24.9% | viability, T/C [27]: 12.4% | viability, T/C [28]: 8.64% | viability, T/C (second compound 0.1 µM, first compound 0.00316 µM): 63% | viability, T/C (second compound 0.1 µM, first compound 0.01 µM): 55.5% | viability, T/C [29]: 37.4% | viability, T/C [30]: 22.6% | viability, T/C [31]: 12.3% | viability, T/C [32]: 9.1% | viability, T/C (second compound 0.316 µM, first compound 0.00316 µM): 51.6% | viability, T/C (second compound 0.316 µM, first compound 0.01 µM): 48.6% | viability, T/C [33]: 38% | viability, T/C [34]: 23.3% | viability, T/C [35]: 15.3% | viability, T/C [36]: 10.6% | viability, T/C (second compound 1 µM, first compound 0.00316 µM): 51.9% | viability, T/C (second compound 1 µM, first compound 0.01 µM): 49.2% | viability, T/C [37]: 39.8% | viability, T/C [38]: 26.6% | viability, T/C [39]: 17.7% | viability, T/C [40]: 10.6%

Cc1nc(NC(=O)N2CCCC2C(N)=O)sc1-c1ccnc(C(C)(C)C(F)(F)F)c1 (stereo not given) + CCN1CCN(Cc2ccc(Nc3ncc(F)c(-c4cc(F)c5nc(C)n(C(C)C)c5c4)n3)nc2)CC1
IC50 (second compound 0.01 µM): 6390 nM | IC50 (second compound 0.0316 µM): 1040 nM | IC50 (second compound 0.1 µM): 442 nM | IC50 (second compound 0.316 µM): 262 nM | IC50 (second compound 1 µM): 150 nM | viability, T/C [21]: 91.6% | viability, T/C [22]: 85.8% | viability, T/C [23]: 77% | viability, T/C [24]: 68.2% | viability, T/C [41]: 63% | viability, T/C [42]: 42.5% | viability, T/C [25]: 69.7% | viability, T/C [26]: 69.3% | viability, T/C [27]: 63.3% | viability, T/C [28]: 46.4% | viability, T/C [43]: 41.3% | viability, T/C [44]: 27.3% | viability, T/C [29]: 61.8% | viability, T/C [30]: 58.5% | viability, T/C [31]: 50.4% | viability, T/C [32]: 46% | viability, T/C [45]: 36.9% | viability, T/C [46]: 26% | viability, T/C [33]: 58% | viability, T/C [34]: 57.2% | viability, T/C [35]: 47.8% | viability, T/C [36]: 42.6% | viability, T/C [47]: 35.3% | viability, T/C [48]: 28.1% | viability, T/C [37]: 54% | viability, T/C [38]: 55.7% | viability, T/C [39]: 43.5% | viability, T/C [40]: 41.1% | viability, T/C [49]: 34.8% | viability, T/C [50]: 25.9%

Cn1nccc1Nc1nccc(-c2ccn(C(CO)c3ccc(Cl)c(F)c3)c(=O)c2)n1 (stereo not given) + CCN1CCN(Cc2ccc(Nc3ncc(F)c(-c4cc(F)c5nc(C)n(C(C)C)c5c4)n3)nc2)CC1
IC50 (second compound 0.01 µM): 3680 nM | IC50 (second compound 0.0316 µM): 1960 nM | IC50 (second compound 0.1 µM): 657 nM | IC50 (second compound 0.316 µM): < 31.6 nM | IC50 (second compound 1 µM): < 31.6 nM | viability, T/C [21]: 78% | viability, T/C [22]: 70.3% | viability, T/C [23]: 67% | viability, T/C [24]: 74.3% | viability, T/C [41]: 53.6% | viability, T/C [42]: 26.7% | viability, T/C [25]: 69.1% | viability, T/C [26]: 55.4% | viability, T/C [27]: 52.8% | viability, T/C [28]: 57.9% | viability, T/C [43]: 48% | viability, T/C [44]: 30.4% | viability, T/C [29]: 55.6% | viability, T/C [30]: 50% | viability, T/C [31]: 48.5% | viability, T/C [32]: 49.2% | viability, T/C [45]: 44% | viability, T/C [46]: 26.4% | viability, T/C [33]: 53.5% | viability, T/C [34]: 42.6% | viability, T/C [35]: 42.4% | viability, T/C [36]: 44.4% | viability, T/C [47]: 41.5% | viability, T/C [48]: 28.1% | viability, T/C [37]: 46.1% | viability, T/C [38]: 45.3% | viability, T/C [39]: 40.3% | viability, T/C [40]: 43.6% | viability, T/C [49]: 45.3% | viability, T/C [50]: 30.4%
